Source: patent US8217000B2, “Method for elevating prolactin in mammals” (Cara Therapeutics, Inc., priority 2006, dated 2012)
Counter-ions that a name gives are not always drawn. Non-standard residues stand in square brackets, D forms with d. Residues, ends and D or L forms follow the SMILES beside them. *: point of attachment. NH(4-picolyl) = c1cc(CN*)ccn1; dNle = CCCC[C@@H](N)C(=O)O

Experiment: Plasma pharmacokinetics of CR665 after single IV infusion in human subjects
Conditions: for AUC(0-inf) / clearance / Cmax / MRT / Vd / half-life / Tmax / AUC(0-t): male, human, plasma, iv; for AUC(0-inf): AUC0-∞; for clearance: CL; for MRT: MRTint; for half-life: t1/2, males; for Tmax: median; for AUC(0-t): AUC0-t; for MRTint, geometric least squares mean: Parts A & B
Procedure: This clinical study was conducted as a double blind, placebo controlled, ascending single intravenous (IV) dose, sequential group study. This study was double blind and placebo controlled in order to avoid bias in the collection and evaluation of data during its conduct. […] In each group, subjects received CR665 or placebo. Doses were administered as a single constant rate IV infusion over 1 hour (part A) or 5 minutes (part B) on the morning of Day 1. Doses were administered in an escalating manner following satisfactory review of the safety data and pharmacokinetic data from the lower dose levels. There was a minimum of 6 days between dose escalations to allow sufficient time for an adequate safety review.
Plasma and urine samples for the analysis of CR665 and N oxide metabolite were prepared by solid phase extraction. The centrifuged eluates were quantified by liquid chromatography with tandem mass spectrometric detection (LC MS/MS). The lower limit of quantification was 1 ng/mL.
For pharmacokinetic assessments, blood samples (1×3 mL) were taken from the contralateral forearm vein(s) at the following times: Pre-dose, 15 minutes, 30 minutes, 45 minutes, 1 hour (immediately prior to the end of infusion), 1 hour 5 minutes, 1 hour 10 minutes, 1 hour 15 minutes, 1.5, 2, 2.5, 3, 4, 6, 8, 12, 16, 24, 36 and 48 hours after the start of the infusion). An indwelling cannula (Venflon®; BOC Ohmeda AB, Sweden) was used for all blood collection pre-dose and up to at least 12 hours after the start of the infusion. Otherwise, samples were collected using venipuncture. Blood samples were collected into pre-chilled 3 mL K3EDTA Vacutainer™ tubes (Becton Dickinson UK, Ltd., Oxford) and, after mixing, were placed in a cool box containing crushed ice/water. The samples were centrifuged, within 30 minutes of collection, at 1500 g for 10 minutes at approximately 4° C. For each sample, the separated plasma was transferred into two 5 mL suitably labeled polypropylene tubes, and stored immediately at approximately −20° C. Plasma samples were analyzed for CR665 using liquid chromatography with tandem mass spectrometric detection.
The pharmacokinetic analysis was conducted using WinNonlin Enterprise Version 4.0.1.
Pharmacokinetic parameters were determined from the plasma and urine, concentrations of CR665 and the N-oxide metabolite using non compartmental procedures.
Dose and body weight normalized values (norm) were determined for AUC0-t, AUC0-∞, Cinf and Cmax. Body weight normalized values [norm] were determined for Vz, Vss, CL and CLR.
The pharmacokinetic analysis was conducted using model independent methods as implemented in WinNonlin software, based on plasma concentrations of CR665 from those subjects who have received CR665 and have evaluable plasma concentration-time profiles.
The following plasma pharmacokinetic parameters were determined for CR665: • Cmax Maximum plasma concentration • tmax Time of maximum plasma concentration • t1/2z Terminal half-life=ln(2)/λz • AUC0-1 Area under the plasma concentration-time curve from time zero to time t (time of last quantifiable plasma concentration) • AUCinf Area under the plasma concentration-time curve from time zero to infinity calculated as [AUC0-t+(Clast/λz)] where Clast is the estimated concentration at the last quantifiable concentration curve. • λz Terminal-phase rate constant, also known as Kel • CL Total body clearance=Dose/AUCinf • Vz Volume of distribution based on terminal phase calculated as Vz/F=Dose/λz*AUCinf
Individual elapsed sampling times were used in the pharmacokinetic analysis. Cmax and tmax were obtained directly from the experimental observations. For the purpose of calculating AUC0-t, when two consecutive plasma concentrations below the lower limit of quantification (LLOQ) were encountered after tmax, all subsequent values were excluded from the analysis.

[1] = 0.06 mg/kg, males, 5-minute IV infusion, geometric mean
[2] = 0.06 mg/kg, males, 1 hour IV infusion, geometric mean
[3] = 0.09 mg/kg, males, 5-minute IV infusion, geometric mean
[4] = 0.12 mg/kg, males, 1 hour IV infusion, geometric mean
[5] = 0.24 mg/kg, males, 1 hour IV infusion, geometric mean
[6] = 0.36 mg/kg, males, 1 hour IV infusion, geometric mean
[7] = 0.42 mg/kg, males, 1 hour IV infusion, geometric mean
[8] = 0.48 mg/kg, males, 1 hour IV infusion, geometric mean
[9] = males, all doses, 5-minute infusion

CCCC[C@@H](NC(=O)[C@@H](Cc1ccccc1)NC(=O)[C@H](N)Cc1ccccc1)C(=O)N[C@H](CCCNC(=N)N)C(=O)NCc1ccncc1 [CR665, D-phenylalanyl-D-phenylalanyl-D-norleucyl-N-(4-pyridinylmethyl)-D-argininamide, acetate salt] (H-[dF][dF][dNle][dR]-{NH(4-picolyl)})
AUC(0-inf) [1]: 142 ng·h/mL
AUC(0-inf) [2]: 132 ng·h/mL
clearance [1]: 553 mL/min
clearance [2]: 564 mL/min
Cmax [1]: 624 ng/mL
Cmax [2]: 119 ng/mL
MRT [1]: 30.1 min
MRT [2]: 33.8 min
Vd (0.06 mg/kg, Vss, males, 0.06 mg/kg, 5-minute IV infusion, geometric mean): 16.6 L
Vd (0.06 mg/kg, Vss, males, 0.06 mg/kg, 1 hour IV infusion, geometric mean): 19 L
Vd (0.06 mg/kg, Vz, males, 5-minute IV infusion, geometric mean): 48 L
Vd (0.06 mg/kg, Vz, males, 1 hour IV infusion, geometric mean): 35.5 L
half-life (0.06 mg/kg, 5-minute IV infusion, geometric mean): 60 min
half-life (0.06 mg/kg, 1 hour IV infusion, geometric mean): 43.7 min
Tmax (0.06 mg/kg, males, 5-minute IV infusion): 5 min
Tmax (0.06 mg/kg, males, 1 hour IV infusion): 52.5 min
AUC(0-t) [3]: 209 ng·h/mL
AUC(0-inf) [3]: 213 ng·h/mL
clearance [3]: 575 mL/min
Cmax [3]: 783 ng/mL
MRT [3]: 32.2 min
Vd (0.09 mg/kg, Vss, males, 0.09 mg/kg, 5-minute IV infusion, geometric mean): 18.5 L
Vd (0.09 mg/kg, Vz, males, 5-minute IV infusion, geometric mean): 56.7 L
half-life (0.09 mg/kg, 5-minute IV infusion, geometric mean): 68.4 min
Tmax (0.09 mg/kg, males, 5-minute IV infusion): 5 min
AUC(0-t) [4]: 267 ng·h/mL
AUC(0-inf) [4]: 270 ng·h/mL
clearance [4]: 533 mL/min
Cmax [4]: 231 ng/mL
MRT [4]: 43.4 min
Vd (0.12 mg/kg, Vss, males, 0.12 mg/kg, 1 hour IV infusion, geometric mean): 23.1 L
Vd (0.12 mg/kg, Vz, males, 1 hour IV infusion, geometric mean): 75.9 L
half-life (0.12 mg/kg, 1 hour IV infusion, geometric mean): 99 min
Tmax (0.12 mg/kg, males, 1 hour IV infusion): 45 min
AUC(0-t) [5]: 474 ng·h/mL
AUC(0-inf) [5]: 478 ng·h/mL
clearance [5]: 629 mL/min
Cmax [5]: 431 ng/mL
MRT [5]: 36.8 min
Vd (0.24 mg/kg, Vss, males, 0.24 mg/kg, 1 hour IV infusion, geometric mean): 23.2 L
Vd (0.24 mg/kg, Vz, males, 1 hour IV infusion, geometric mean): 74.6 L
half-life (0.24 mg/kg, 1 hour IV infusion, geometric mean): 82.2 min
Tmax (0.24 mg/kg, males, 1 hour IV infusion): 60 min
AUC(0-t) [6]: 808 ng·h/mL
AUC(0-inf) [6]: 812 ng·h/mL
clearance [6]: 569 mL/min
Cmax [6]: 779 ng/mL
MRT [6]: 37.4 min
Vd (0.36 mg/kg, Vss, males, 0.36 mg/kg, 1 hour IV infusion, geometric mean): 21.2 L
Vd (0.36 mg/kg, Vz, males, 1 hour IV infusion, geometric mean): 80.6 L
half-life (0.36 mg/kg, 1 hour IV infusion, geometric mean): 98.4 min
Tmax (0.36 mg/kg, males, 1 hour IV infusion): 60 min
AUC(0-t) [7]: 1080 ng·h/mL
AUC(0-inf) [7]: 1080 ng·h/mL
clearance [7]: 504 mL/min
Cmax [7]: 943 ng/mL
MRT [7]: 37.1 min
Vd (0.42 mg/kg, Vss, males, 0.42 mg/kg, 1 hour IV infusion, geometric mean): 18.7 L
Vd (0.42 mg/kg, Vz, males, 1 hour IV infusion, geometric mean): 77.9 L
half-life (0.42 mg/kg, 1 hour IV infusion, geometric mean): 107 min
Tmax (0.42 mg/kg, males, 1 hour IV infusion): 60 min
AUC(0-t) [8]: 1120 ng·h/mL
AUC(0-inf) [8]: 1120 ng·h/mL
clearance [8]: 576 mL/min
Cmax [8]: 982 ng/mL
MRT [8]: 38.9 min
Vd (0.48 mg/kg, Vss, males, 0.48 mg/kg, 1 hour IV infusion, geometric mean): 22.4 L
Vd (0.48 mg/kg, Vz, males, 1 hour IV infusion, geometric mean): 93.3 L
half-life (0.48 mg/kg, 1 hour IV infusion, geometric mean): 112 min
Tmax (0.48 mg/kg, males, 1 hour IV infusion): 52.5 min
AUC0-t (norm), ratio of geometric least squares means 5-minute:1-hour (males): 1.02
AUC0-∞ (norm), ratio of geometric least squares means 5-minute:1-hour (males): 1.04
CL, ratio of geometric least squares means 5-minute:1-hour (males): 0.964
Cmax (norm), ratio of geometric least squares means 5-minute:1-hour (males): 4.49
Cmax, fold higher for the 5-minute compared to the 1-hour infusion (males): approximately 4.5 fold
MRTint, ratio of geometric least squares means 5-minute:1-hour (males): 0.923
Vss, ratio of geometric least squares means 5-minute:1-hour (males): 0.900
Vz, ratio of geometric least squares means 5-minute:1-hour (males): 1.03
t1/2, ratio of geometric least squares means 5-minute:1-hour (males): 1.02
MRTint (males, 0.24 mg/kg, 1 hour IV infusion, geometric mean): 36.8 min
MRTint, geometric least squares mean (males, 1-hour infusion): 36.3 min
MRTint, geometric least squares mean (males, 5-minute infusion): 33.5 min
Pooled between-subject variability for AUC0-∞ [9]: 15.3%
Pooled between-subject variability for Cmax [9]: 24.1%
